The EC50 is the concentration at which the effect is half-maximal.

Read-outs that look alike come from different tables or passages of the source.

In this experiment the test system is HCV 1b genotype. In words: HCV Replicon assay (HCV 1b genotype). The experiment is classed as cell-based, Hepatitis C virus. The conditions noted are these: Hepatitis C virus, HCV 1b genotype replicon. As for the experimental part: An HCV Replicon assay was utilized in the present disclosure, and was prepared, conducted and validated as described in commonly owned PCT/US2006/022197 and in O'Boyle et. al. Antimicrob Agents Chemother. 2005 April; 49(4):1346-53. Assay methods incorporating luciferase reporters have also been used as described (Apath.com).
HCV-neo replicon cells and replicon cells containing mutations in the NS5A region were used to test the currently described family of compounds. The compounds were determined to have more than 10-fold less inhibitory activity on cells containing mutations than wild-type cells. Thus, the compounds of the present disclosure can be effective in inhibiting the function of the HCV NS5A protein and are understood to be as effective in combinations as previously described in application PCT/US2006/022197 and commonly owned WO/04014852. Further, the compounds of the present disclosure can be effective against the HCV 1b genotype. It should also be understood that the compounds of the present disclosure can inhibit multiple genotypes of HCV. […] In one embodiment, compounds of the present disclosure are inhibitory versus 1a, 1b, 2a, 2b, 3a, 4a, and 5a genotypes.

Where [1] appears, read: Effective 50% inhibitory concentration, read-out: 1b EC50.
Where [2] appears, read: class symbol, read-out: Range (EC50 values against HCV 1b).

As for `COC(=O)N[C@H](C(=O)N1CCC[C@H]1c1ncc(-c2ccc(C#Cc3ccc4c(c3)CCc3nc([C@@H]5CCCN5C(=O)[C@@H](NC(=O)OC)C(C)C)[nH]c3-4)cc2)[nH]1)C(C)C` [Example D-3, methyl ((1S)-1-(((2S)-2-(4-(4-((2-((2S)-1-((2S)-2-((methoxycarbonyl)amino)-3-methylbutanoyl)-2-pyrrolidinyl)-4,5-dihydro-1H-naphtho[1,2-d]imidazol-7-yl)ethynyl)phenyl)-1H-imidazol-2-yl)-1-pyrrolidinyl)carbonyl)-2-methylpropyl)carbamate], the EC50 was 0.006 nM under setting [1] and 0.002 to 0.099 nM under setting [2].

On to `COC(=O)N[C@H](C(=O)N1C[C@@H](C)C[C@H]1c1nc(Cl)c(-c2ccc(C#Cc3ccc(-c4[nH]c([C@@H]5C[C@H](C)CN5C(=O)[C@@H](NC(=O)OC)C5CCOCC5)nc4Cl)cc3)cc2)[nH]1)C1CCOCC1` [Example M12.7, dimethyl (1,2-ethynediylbis(4,1-phenylene(4-chloro-1H-imidazole-5,2-diyl)((2S,4S)-4-methyl-2,1-pyrrolidinediyl)((1S)-2-oxo-1-(tetrahydro-2H-pyran-4-yl)-2,1-ethanediyl)))biscarbamate], for which the EC50 is 0.061 nM under setting [1] and 0.002 to 0.099 nM under setting [2].

For `CN(C)[C@@H](C(=O)N1CCC[C@H]1c1ncc(-c2ccc(COCc3ccc(-c4cnc([C@@H]5CCCN5C(=O)[C@@H](c5ccccc5)N(C)C)[nH]4)cc3)cc2)[nH]1)c1ccccc1` [OL-14, (1R)-2-((2S)-2-(4-(4-(((4-(2-((2S)-1-((2R)-2-(dimethylamino)-2-phenylacetyl)-2-pyrrolidinyl)-1H-imidazol-5-yl)benzyl)oxy)methyl)phenyl)-1H-imidazol-2-yl)-1-pyrrolidinyl)-N,N-dimethyl-2-oxo-1-phenylethanamine], the EC50 under setting [2] was 0.1 to 0.99 nM.

As to `COC(=O)N[C@H](C(=O)N1CCCC[C@H]1c1ncc(-c2ccc(C#Cc3ccc(-c4cnc([C@@H]5CCCCN5C(=O)[C@@H](NC(=O)OC)C(C)C)[nH]4)cc3)cc2)[nH]1)C(C)C` [Example N6, methyl ((1S)-1-(((2S)-2-(4-(4-((4-(2-((2S)-1-((2S)-2-((methoxycarbonyl)amino)-3-methylbutanoyl)-2-piperidinyl)-1H-imidazol-4-yl)phenyl)ethynyl)phenyl)-1H-imidazol-2-yl)-1-piperidinyl)carbonyl)-2-methylpropyl)carbamate], under setting [2], the 50% effective concentration (EC50) lay in the range of 10 to 350 nM.

Regarding `CN(C)[C@@H](C(=O)N1CCC[C@H]1c1ncc(-c2ccc(CCc3ccc(-c4cnc([C@@H]5CCCN5C(=O)[C@@H](c5ccccc5)N(C)C)[nH]4)cc3)cc2)[nH]1)c1ccccc1` [OL-9, (1R)-2-((2S)-2-(4-(4-(2-(4-(2-((2S)-1-((2R)-2-(dimethylamino)-2-phenylacetyl)-2-pyrrolidinyl)-1H-imidazol-5-yl)phenyl)ethyl)phenyl)-1H-imidazol-2-yl)-1-pyrrolidinyl)-N,N-dimethyl-2-oxo-1-phenylethanamine], the EC50 under setting [2] lay in the range of 0.002 to 0.099 nM.

As for `O=C([C@H](O)c1ccccc1)N1CCC[C@H]1c1nc(-c2ccc(COCc3cccc(-c4c[nH]c([C@@H]5CCCN5C(=O)[C@H](O)c5ccccc5)n4)c3)cc2)c[nH]1` [OL-21, (1R)-2-((2S)-2-(4-(3-(((4-(2-((2S)-1-((2R)-2-hydroxy-2-phenylacetyl)-2-pyrrolidinyl)-1H-imidazol-4-yl)benzyl)oxy)methyl)phenyl)-1H-imidazol-2-yl)-1-pyrrolidinyl)-2-oxo-1-phenylethanol], the EC50 under setting [2] lay within 0.1 to 0.99 nM.

Take `COC(=O)N[C@@H](C(=O)N1CCC[C@H]1c1nc(-c2ccc(COc3ccc(-c4c[nH]c([C@@H]5CCCN5C(=O)[C@H](NC(=O)OC)c5ccccc5)n4)cc3)cc2)c[nH]1)c1ccccc1` [OL-8, methyl ((1R)-2-((2S)-2-(4-(4-((4-(2-((2S)-1-((2R)-2-((methoxycarbonyl)amino)-2-phenylacetyl)-2-pyrrolidinyl)-1H-imidazol-4-yl)benzyl)oxy)phenyl)-1H-imidazol-2-yl)-1-pyrrolidinyl)-2-oxo-1-phenylethyl)carbamate]: under setting [2], the EC50 was 0.002 to 0.099 nM.

(Values after patent US8796466B2, “Hepatitis C virus inhibitors” (Bristol-Myers Squibb Company, priority 2009, dated 2014).)
